Source: publication PMC11012124, “Synthesis of Novel Triazine-Based Chalcones and 8,9-dihydro-7H-pyrimido[4,5-b][1,4]diazepines as Potential Leads in the Search of Anticancer, Antibacterial and Antifungal Agents” (International Journal of Molecular Sciences, 2024)

How the values were obtained:
Experiment in all cases: cells
CCRF-CEM = details: Homo sapiens, 48 h, read-out: LC50
K-562 = details: Homo sapiens, K562, 48 h
MOLT-4 = details: Homo sapiens, MOLT-4, 48 h
A549/ATCC = details: Homo sapiens, A549, 48 h
EKVX = details: Homo sapiens, 48 h
HOP-62 = details: Homo sapiens, HOP-62, 48 h
HOP-92 = details: Homo sapiens, HOP-92, 48 h
NCI-H23 = details: Homo sapiens, NCI-H23, 48 h
NCI-H460 = details: Homo sapiens, NCI-H460, 48 h
COLO 205 = details: Homo sapiens, COLO 205, 48 h
HCC-2998 = details: Homo sapiens, HCC 2998, 48 h
HCT-116 = details: Homo sapiens, HCT-116, 48 h
HCT-15 = details: Homo sapiens, HCT-15, 48 h
HT29 = details: Homo sapiens, HT-29, 48 h
KM12 = details: Homo sapiens, KM12, 48 h
SW-620 = details: Homo sapiens, SW-620, 48 h
SF-268 = details: Homo sapiens, SF-268, 48 h
SF-295 = details: Homo sapiens, SF-295, 48 h
U251 = details: Homo sapiens, U-251, 48 h
LOX IMVI = details: Homo sapiens, 48 h
MALME-3M = details: Homo sapiens, 48 h
SK-MEL-2 = details: Homo sapiens, SK-MEL-2, 48 h
SK-MEL-28 = details: Homo sapiens, SK-MEL-28, 48 h
SK-MEL-5 = details: Homo sapiens, SK-MEL-5, 48 h
IGROV1 = details: Homo sapiens, IGROV-1, 48 h, read-out: LC50
OVCAR-3 = details: Homo sapiens, OVCAR-3, 48 h
OVCAR-5 = details: Homo sapiens, OVCAR-5, 48 h
SK-OV-3 = details: Homo sapiens, SK-OV-3, 48 h
786-0 = details: Homo sapiens, 786-0, 48 h
A498 = details: Homo sapiens, A498, 48 h
ACHN = details: Homo sapiens, 48 h
CAKI-1 = details: Homo sapiens, CAKI-1, 48 h
RXF 393 = details: Homo sapiens, RXF 393, 48 h
UO-31 = details: Homo sapiens, UO-31, 48 h, read-out: LC50
PC-3 = details: Homo sapiens, PC-3, 48 h
MDA-MB-231/ATCC = details: Homo sapiens, MDA-MB-231, 48 h
T-47D = details: Homo sapiens, T47D, 48 h

Q: Which CC50 (CCRF-CEM) does the source give for COc1cc(C2CC(c3ccc(Cl)cc3)=Nc3c(N)nc(N)nc3N2)ccc1Oc1nc(Nc2ccc(F)cc2)nc(N(C)C)n1 (centres unmarked) [29e] here?
A: > 100 µM

Q: What about the GI50 (K-562; K-562, 48 h) of the same molecule?
A: 4.5 µM

Q: And the CC50 (K-562; read-out: LC50)?
A: > 100 µM

Q: And the GI50 (MOLT-4)?
A: 8.54 µM

Q: What about the CC50 (MOLT-4; read-out: LC50) of the same molecule?
A: > 100 µM

Q: And the GI50 (A549/ATCC)?
A: > 100 µM

Q: And the CC50 (A549/ATCC; read-out: LC50)?
A: > 100 µM

Q: And the GI50 (EKVX)?
A: > 100 µM

Q: And the CC50 (EKVX; read-out: LC50)?
A: > 100 µM

Q: And the GI50 (HOP-62)?
A: > 100 µM

Q: What about the CC50 (HOP-62; read-out: LC50) of the same molecule?
A: > 100 µM

Q: And the GI50 (HOP-92)?
A: 3 µM

Q: What about the CC50 (HOP-92; read-out: LC50) of the same molecule?
A: > 100 µM

Q: And the GI50 (NCI-H23)?
A: > 100 µM

Q: And the CC50 (NCI-H23; read-out: LC50)?
A: > 100 µM

Q: What about the GI50 (NCI-H460) of the same molecule?
A: 42.3 µM

Q: And the CC50 (NCI-H460; read-out: LC50)?
A: > 100 µM

Q: And the GI50 (COLO 205)?
A: > 100 µM

Q: What about the CC50 (COLO 205; read-out: LC50) of the same molecule?
A: > 100 µM

Q: What about the GI50 (HCC-2998) of the same molecule?
A: 45.3 µM

Q: And the CC50 (HCC-2998; read-out: LC50)?
A: > 100 µM

Q: What about the GI50 (HCT-116) of the same molecule?
A: 12.5 µM

Q: What about the CC50 (HCT-116; read-out: LC50) of the same molecule?
A: > 100 µM

Q: And the GI50 (HCT-15)?
A: 76.6 µM

Q: And the CC50 (HCT-15; read-out: LC50)?
A: > 100 µM

Q: What about the GI50 (HT29) of the same molecule?
A: 29.4 µM

Q: What about the CC50 (HT29; read-out: LC50) of the same molecule?
A: > 100 µM

Q: And the GI50 (KM12)?
A: 40.1 µM

Q: What about the CC50 (KM12; read-out: LC50) of the same molecule?
A: > 100 µM

Q: And the GI50 (SW-620)?
A: > 100 µM

Q: What about the CC50 (SW-620; read-out: LC50) of the same molecule?
A: > 100 µM

Q: And the GI50 (SF-268)?
A: > 100 µM

Q: What about the CC50 (SF-268; read-out: LC50) of the same molecule?
A: > 100 µM

Q: What about the GI50 (SF-295) of the same molecule?
A: > 100 µM

Q: What about the CC50 (SF-295; read-out: LC50) of the same molecule?
A: > 100 µM

Q: What about the GI50 (U251; U251, 48 h) of the same molecule?
A: > 100 µM

Q: And the CC50 (U251; read-out: LC50)?
A: > 100 µM

Q: And the GI50 (LOX IMVI)?
A: 47.8 µM

Q: And the CC50 (LOX IMVI; read-out: LC50, LOX IMVI, 48 h)?
A: > 100 µM

Q: What about the GI50 (MALME-3M) of the same molecule?
A: > 100 µM

Q: And the CC50 (MALME-3M; read-out: LC50)?
A: > 100 µM

Q: What about the GI50 (SK-MEL-2) of the same molecule?
A: > 100 µM

Q: What about the CC50 (SK-MEL-2; read-out: LC50) of the same molecule?
A: > 100 µM

Q: What about the GI50 (SK-MEL-28) of the same molecule?
A: > 100 µM

Q: And the CC50 (SK-MEL-28; read-out: LC50)?
A: > 100 µM

Q: And the GI50 (SK-MEL-5)?
A: 17.2 µM

Q: And the CC50 (SK-MEL-5; read-out: LC50)?
A: > 100 µM

Q: What about the CC50 (IGROV1) of the same molecule?
A: > 100 µM

Q: And the GI50 (OVCAR-3)?
A: > 100 µM

Q: What about the CC50 (OVCAR-3; read-out: LC50) of the same molecule?
A: > 100 µM

Q: What about the GI50 (OVCAR-5) of the same molecule?
A: > 100 µM

Q: And the CC50 (OVCAR-5; read-out: LC50)?
A: > 100 µM

Q: What about the GI50 (SK-OV-3) of the same molecule?
A: > 100 µM

Q: And the CC50 (SK-OV-3; read-out: LC50)?
A: > 100 µM

Q: And the GI50 (786-0)?
A: > 100 µM

Q: What about the CC50 (786-0; read-out: LC50) of the same molecule?
A: > 100 µM

Q: What about the GI50 (A498) of the same molecule?
A: > 100 µM

Q: What about the CC50 (A498; read-out: LC50) of the same molecule?
A: > 100 µM

Q: And the GI50 (ACHN)?
A: > 100 µM

Q: What about the CC50 (ACHN; read-out: LC50) of the same molecule?
A: > 100 µM

Q: And the GI50 (CAKI-1)?
A: 3.38 µM

Q: What about the CC50 (CAKI-1; read-out: LC50) of the same molecule?
A: > 100 µM

Q: And the GI50 (RXF 393)?
A: 2.46 µM

Q: What about the CC50 (RXF 393; read-out: LC50) of the same molecule?
A: > 100 µM

Q: And the CC50 (UO-31)?
A: > 100 µM

Q: What about the GI50 (PC-3) of the same molecule?
A: 6.16 µM

Q: And the CC50 (PC-3; read-out: LC50)?
A: > 100 µM

Q: And the GI50 (MDA-MB-231/ATCC)?
A: 6.73 µM

Q: What about the CC50 (MDA-MB-231/ATCC; read-out: LC50) of the same molecule?
A: > 100 µM

Q: What about the GI50 (T-47D) of the same molecule?
A: > 100 µM

Q: What about the CC50 (T-47D; read-out: LC50) of the same molecule?
A: > 100 µM
